The conditions of data set [1]: Liquid; for mass density: 298.15 K, 101.33 kPa; for Normal boiling temperature: Ebulliometric method (Recirculating still).
The nature of data set [2]: refractive index (Na D-line) (dimensionless). Conditions: 298.15 K; 101.33 kPa; Liquid; Standard Abbe refractometry.

Numbers after ± are expanded uncertainties.

On to `CCCCOC(C)(C)C` [butane, 1-(1,1-dimethylethoxy)-], for which, in data set [1], the mass density is given as 757.57 ± 0.26 kg/m3 and the Normal boiling temperature came out at 122.50 ± 0.1 °C. Besides, the refractive index in data set [2] is recorded as 1.3917 ± 0.00072.
For the molecule `CCO` [ethanol], in data set [1], the mass density was 785.22 ± 0.5 kg/m3 and the Normal boiling temperature is 78.29 ± 0.1 °C. Moreover, in data set [2], the refractive index was 1.3592 ± 0.00073.
On to `CO` [methanol], for which, in data set [1], the mass density was determined as 786.63 ± 0.5 kg/m3 and the Normal boiling temperature was determined as 64.4 ± 0.1 °C. For the same molecule, the refractive index in data set [2] is on record as 1.3264 ± 0.0007.

Usually mass density stands for mass per unit of volume. For orientation: refractive index means a measure of how strongly the sample bends light.
